Reference: patent US20090048283A1, “Salt of an androgen receptor modulator” (priority 2007, published 2009)

How the values were obtained:
[1] = solid-state form interconversion (variable temperature X-ray, drying); assay type: physicochemical; conditions: ambient conditions or drying
Text: FIG. 5 is an overlay of variable temperature X-ray powder diffraction patterns showing the appearance of the non-isolatable anhydrous Form C of the 2:1 compound I:biphthalate salt.
FIG. 6 is an overlay of X-ray powder diffraction patterns comparing Form B, the dihydrate 2:1 compound I:biphthalate salt, with Form D, the tetrahydrate 2:1 compound I:biphthalate salt. When the wet cake of the 2:1 compound I:biphthalate salt, was air dried at room temperature, Form D was obtained at both T=5 days and T=8-days. The various methods of drying possible, in addition to the size of the sample to be dried, can vary the time needed for drying. The dryness was determined by a stable TG curve showing about a 6% weight loss. Here, the method was to dry in open air, and at both time points (T=5 and T=8 days), the weight loss by TGA was equal to about 6%.
In another embodiment of the invention, anhydrous 2:1 compound I:biphthalate material was non-isolatable at ambient condition, but the hygroscopicity study indicated the presence of one or more hydrated states from 15% to 95% RH. The weight percent of water was 3.4% at 15% RH with a gradual increase to 6.1% at 95%. […] Form D is suspected to be a tetrahydrate biphthalate salt based on its TG data in addition to the hygroscopicity data of Form B. Upon further drying (15 days), the TG and XRD data conform to that of Form B, the dihydrate 2:1 compound I:biphthalate salt.

[2] = hygroscopicity by symmetric vapor sorption analyzer; assay type: physicochemical; conditions: 25° C.
Protocol: A large quantity of Form A (wet cake of N-(3H-imidazo[4,5-B]pyridin-2-ylmethyl)-2-fluoro-4-methyl-3-oxo-4-aza-5-alpha-androst-1-en-17-beta-carboxamide) was generated by dissolving the crystalline free base (Form E) in pH 3—potassium biphthalate and sulfuric acid mixture—for 10 days at RT. The slurry was filtered and washed with copious amount of D.I. water to wash off residual ions. The wet cake (Form A) was analyzed by x-ray and was then vacuum dried at 37° C. for 3 days. Upon drying, a change in x-ray pattern was observed. The dry cake (Form B) was then analyzed by differential scanning calorimetry (DSC) and thermogravimetry (TG). The TG analysis was performed under a nitrogen flow at a heating rate of 10° C./min, and the DSC was performed under nitrogen flow at a heating rate of 10° C./min in a covered pan. The hygroscopicity of Form B was determined using a symmetric vapor sorption analyzer. The experiment includes an initial drying step at 60° C., followed by measurements of water sorption at 25° C. for percent RH values from 5% to 95% in 10% intervals. The data are reported as percent weight gain as a function of percent RH. Form B was also analyzed for weight percent by liquid chromatography (LCWP) by high performance liquid chromatography (HPLC).

CN1C(=O)C(F)=C[C@]2(C)C3CC[C@]4(C)[C@@H](C(=O)NCc5nc6cccnc6[nH]5)CC[C@H]4C3CC[C@@H]12 (some centres unmarked) [Form D]
solid-state form stability / conversion [1]: converts to Form B upon further drying

CN1C(=O)C(F)=C[C@]2(C)C3CC[C@]4(C)[C@@H](C(=O)NCc5nc6cccnc6[nH]5)CC[C@H]4C3CC[C@@H]12 (some centres unmarked) [Form B]
weight percent of water ([2]; at 15% RH): 3.4%
weight percent of water ([2]; at 95% RH): 6.1%
solid-state form stability / conversion [1]: the most stable form

CN1C(=O)C(F)=C[C@]2(C)C3CC[C@]4(C)[C@@H](C(=O)NCc5nc6cccnc6[nH]5)CC[C@H]4C3CC[C@@H]12 (some centres unmarked) [Form C]
solid-state form stability / conversion [1]: readily hydrates to Form B in ambient conditions
